# Reference: article PMC9108603, “Microbial Metabolite Inspired β‐Peptide Polymers Displaying Potent and Selective Antifungal Activity” (Advanced Science, 2022)
# Where two headings read alike, the source gives them in different places.
# Legend:
# [1] = tested on: various mammalian cells; experiment: Cytotoxicity, MTT assay, summary over cell types; assay type: cell-based; details: HUVEC, RAW264.7, LO2, COS7, NCM‐460, 24 h, read-out: IC50 for cells other than fibroblast (range)
# Description: Cytotoxicity assay. Cytotoxicity tests were performed on NIH 3T3 fibroblast cells, endothelial cells (HUVEC), macrophage (RAW264.7), liver cells (LO2), kidney cells (COS7) and enterocyte (NCM-460) using MTT assay. Cells were cultured in DMEM supplemented with 10% FBS, 5% penicillin, 2 mM L-glutamine and incubated at 37 °C in 5% CO 2. Cells were harvested and seeded onto 96-well plates at a density of 1.0 × 10^4 cells per well and incubated for 24 h. On each plate, wells containing growth medium only and cells in growth medium without any antifungal agent were used as the negative and positive control, […]
# concentrations ranging from 800 to 1.6 μg/mL. Medium in each cell-containing well was replaced with 100 μL of the corresponding polymer solution, and the plates were incubated at 37 °C for 24 h. Then, the solution in each well was switched to 100 µL MTT solution (1 mg/mL) and the plate was incubated in the dark at 37 °C for 4 h. […] Then 85 µL of the supernatant from each well was transferred to the corresponding well in a new plate, followed by absorbance measurement at 570 nm on a plate reader. […] The percentage of cell viability in each test well, relative to the positive control (which defines 100%) w as calculated from [% fibroblast growth = (A polymer – Ablank)/(Acontrol – A blank) × 100]. […]
# [2] = tested on: C. neoformans; experiment: MFC assay, plating after the MIC test; assay type: cell-based; details: Cryptococcus neoformans, 48 h; note: kills > 99.9%
# Description: (§1) In vitro antifungal assays. The MIC assays for C. albicans (K1, SC5314, Gu5, ATCC90028, R01, R02, R03 and R04 strains) and C. neoformans (H99, MYA737 and JEC21 strains) were conducted according to a previously described protocol. The cultured fungal cells were collected at 2.5 × 10^3 CFU/mL in RPMI 1640 medium to give the working suspension. Two- […]
# (§2) Then 50 µL of the cell suspension was added to each well. Wells containing cells in RPMI without any polymer or antifungal drug were used as drug-free controls, and wells containing RPMI medium only were used as cell-free controls. The plate was gently stirred for 10 seconds and then incubated at 30 °C. After C. albicans and C. neoformans cells were incubated for 24 h and 48 h, respectively, fungal cell growth was checked visually. The MIC values were identified as the lowest concentration […]
# (§3) The MFC assay for Candida and Cryptococcus was conducted after the MIC test.
# (§4) An aliquot of 3 µL premixed suspension from each well was plated on the yeast extract-peptone-dextrose (YPD) agar. The plates were incubated at 30 °C for 24 h and 48 h, respectively, for C. albicans cells and C. neoformans cells. Then the plate was inspected visually for colony formation. […]
# [3] = tested on: C. albicans; experiment: MFC assay, plating after the MIC test; assay type: cell-based; details: Candida albicans; note: kills > 99.9%
# Description: as §1, §2, §3, §4
# [4] = tested on: mature C. albicans biofilms; experiment: Eradication of mature biofilm (MTT); assay type: cell-based, Candida albicans; details: 48 h biofilm, then 48 h treatment at 37 °C
# [5] = tested on: C. albicans (K1 strain); experiment: Killing efficiency under energy depletion; assay type: cell-based, Candida albicans; details: 2 × MFC (50 μg/mL), colony count, n = 3
# Description: Energy depletion analysis. For energy depletion experiments, cell suspension of C. albicans (K1 strain) at 3.0 × 10^6 CFU/mL was pretreated with RPMI containing 5 mM NaN 3 for 1 h. For antifungal efficiency assay, a fresh cell suspension pretreated or non-pretreated with NaN 3 were incubated with 50 μg/mL PDAP 20 or without an antifungal agent (as energy depletion control) for 24 h. The fresh cell suspension without antifungal agents before and after incubation with NaN 3 for 24 h were used as the controls, respectively. The suspensions were diluted and plated on YPD agar. The plates were incubated at 30 °C for 24 h and colony amounts were counted. The cell viability after incubation at 4 °C with 50 μg/mL PDAP 20 or without an antifungal agent (as positive control) was measured using the same method.
# For the confocal assay, a fresh cell suspension pretreated or non-pretreated with NaN 3 was incubated with 50 μg/mL CPM-PDAP 20 for 24 h, respectively. […]
# For flow cytometry experiment, a fresh cell suspension pretreated or non-pretreated with NaN 3 was incubated with 50 μg/mL CPM-PDAP 20 for 1 h and 2 h, respectively. Fungal cells were washed by PBS to remove polymers, and 5.0 × 10^4 cells were counted and anaysized. The polymer uptake was calculated by flow cytometry (Backman). Furthermore, cell suspensions were incubated with 10 μg/mL PI for 10 min for calculated PI uptake. […]
# [6] = tested on: E. coli ATCC 25922; experiment: Antibacterial MIC test; assay type: cell-based; details: 1.0 × 10^5 CFU/mL in MH medium
# From the text: (§5) aforementioned antifungal assay. Gram-positive bacteria ( S. aureus ATCC 6538, S.
# [7] = tested on: S. epidermidis ATCC 49134; experiment: Antibacterial MIC test; assay type: cell-based; details: 1.0 × 10^5 CFU/mL in MH medium
# From the text: as §5
# [8] = tested on: A. Baumannii ATCC 747; experiment: Antibacterial MIC test; assay type: cell-based; details: 1.0 × 10^5 CFU/mL in MH medium
# From the text: as §5
# [9] = tested on: K. pneumoniae ATCC 700603; experiment: Antibacterial MIC test; assay type: cell-based; details: 1.0 × 10^5 CFU/mL in MH medium
# From the text: as §5
# [10] = tested on: B. subtilis BR151; experiment: Antibacterial MIC test; assay type: cell-based; details: 1.0 × 10^5 CFU/mL in MH medium
# From the text: as §5
# [11] = tested on: S. aureus ATCC 6538; experiment: Antibacterial MIC test; assay type: cell-based; details: 1.0 × 10^5 CFU/mL in MH medium
# From the text: as §5
Compound,IC50 [1] [µg/mL],MFC ([2]; read-out: MFC C. neoformans JEC21) [µg/mL],MFC ([2]; read-out: MFC C. neoformans MYA737) [µg/mL],"MFC ([3]; 24 h, read-out: MFC C. albicans R01) [µg/mL]","MFC ([3]; 24 h, read-out: MFC C. albicans R03) [µg/mL]","MFC ([3]; ATCC90028, 24 h, read-out: MFC C. albicans ATCC90028) [µg/mL]","MFC ([3]; SC5314, 24 h, read-out: MFC C. albicans SC5314) [µg/mL]",Concentration that eradicates mature biofilms (SMIC80) [4] [µg/mL],"Fungal cells killed under energy depletion, NaN3 ([5]; 5 × 10^−3 M NaN3, 3.0 × 10^6 CFU/mL, 24 h)","Fungal cells killed under energy depletion, 4°C ([5]; at 4°C)",MIC E. coli [6] [µg/mL],MIC S. epidermidis [7] [µg/mL],MIC A. baumannii [8] [µg/mL],MIC K. pneumoniae [9] [µg/mL],MIC B. subtilis [10] [µg/mL],MIC S. aureus [11] [µg/mL]
"C[C@@H]1[C@H](O)[C@@H](C)/C=C/C=C/C=C/C=C/C=C/C=C/C=C/[C@H](O[C@@H]2O[C@H](C)[C@@H](O)[C@H](N)[C@@H]2O)C[C@@H]2O[C@](O)(C[C@@H](O)C[C@@H](O)[C@H](O)CC[C@@H](O)C[C@@H](O)CC(=O)O[C@H]1C)C[C@H](O)[C@H]2C(=O)O [AmpB, amphotericin B]",8.8 to 128,1.6,1.6,1.6,1.6,1.6,1.6,–,–,–,–,–,–,–,–,–
poly(DL‐diaminopropionic acid) [PDAP20],–,–,–,–,–,–,–,50,about 88%,about 88%,200,200,> 200,> 200,50,> 200
